Laboratory results: patent US20180147198A1, “COMBINATIONS OF PFKFB3 INHIBITORS AND IMMUNE CHECKPOINT INHIBITORS TO TREAT CANCER” (UNIVERSITY OF LOUISVILLE RESEARCH FOUNDATION, INC., priority 2015, published 2018)

Experiments:
human CD3+ T cells = conditions: 1-10 μM; anti-CD3/anti-CD28 microbead stimulation; cited from earlier work
[1] = tested on: delayed type hypersensitivity to methylated BSA; conditions: mice; cited from earlier work
[2] = tested on: imiquimod-induced psoriasis; conditions: mice; cited from earlier work
[3] = tested on: peripheral blood mononuclear cells; assay: Flow cytometry of peripheral blood mononuclear cells of a breast cancer patient receiving PFK-158; format: in vivo, human; conditions: after 1 week, persisted through treatment
Description: An unexpected stability of tumors in multiple patients receiving PFK-158 at doses that were considered to be sub-therapeutic has been observed. […] This breast adenocarcinoma patient received 96 mg/M^2 of PFK-158 every other day for three weeks followed by a one week rest—this cycle was repeated for a total of four cycles. Peripheral blood mononuclear cells were collected on days 1, 8, 15, 22 and 62 and flow cytometry was conducted for a multitude of immunosuppressive cells and activated T cells. […] These cells are the main CD8+ T cells that can infiltrate tumors and differentiate into cytolytic T cells which kill tumor cells. […]
Given the decrease in Th17 cells and increase in effector CD8^+ T cells observed after PFK-158 administration, the ability of PFK-158 to cause an increase in terminally-differentiated CD8^+ effector cells was examined. CD8^+CD57^+CD27^− TCD28^− The breast cancer patient described in Example 7 was administered PFK-158 for 1 cycle and PBMCs were collected at baseline, day 8, 15, 22, and then analyzed for CD8^+CD57^+CD27^− TCD28^− T cells and PD-1. […]
CD57 is a terminally sulfated carbohydrate that is selectively expressed on antigen-specific, and functionally competent memory/effector CD8^+ T cells. […] PBMCs were collected at baseline, day 8, 15, and 22 and CD8^+CD57^+CD27^− CD28^− T cells were analyzed for CD57 expression. […]

Th17 cells = assay: IL-17A production (ELISA) during in vitro Th17 differentiation; format: cell-based, human; conditions: PFK-158 every two days of culture, FIG. 17E,F
Text: (§1) The differentiation of Th17 cells from naïve CD4^+ T cells was induced and, for γδT17 cells, naïve Vγ9Vδ2 T cells were isolated from healthy donors and polarized into IL-17 producing γ6T cells using established methods.
(§2) Human naïve CD4^+ T cells differentiated into Th17 cells or sorted human naïve Vγ9Vδ2 T cells were polarized in vitro and analyzed for PFKFB2-4 mRNA (FIG. 17 A,B), F26BP, and PFKFB3 protein (FIG. 17 C,D). The CD4^+ T cells (during in vitro Th17 differentiation) and Vγ9Vδ2 T cells (during in vitro polarization) were exposed to vehicle (DMSO) or the indicated concentrations of PFK-158 (every two days of the culture period) and IL-17A production was quantified by ELISA (FIG. 17 E,F).

γδT17 cells = assay: IL-17A production (ELISA) during in vitro polarization of Vγ9Vδ2 T cells; format: cell-based, human; conditions: PFK-158 every two days of culture, FIG. 17E,F
Text: as §1, §2

cancer patients = assay: Phase 1 trial of PFK-158 in cancer patients (clinical response, tolerability); format: in vivo
Description: A phase 1 trial of PFK-158 in cancer patients is currently being conducted at Georgetown University, UT Southwestern, Md. Anderson Cancer Center and the U. of Louisville (clinicaltrials.gov# NCT02044861). […] Institutional investigators have observed partial tumor regressions in 3 patients with ocular melanoma, ovarian cancer and renal cell carcinoma and de novo stabilization of tumor burden in 2 patients (breast and adenoid cystic carcinoma). A person with ocular melanoma was administered 24 mg/M^2 in cohort 1 of the phase 1 trial of PFK-158—a dose that is markedly lower than that required to cause the known cytotoxic effects of PFK-158. […] Over the course of six months of therapy, several of the patient's hepatic metastases first became necrotic after 2 monthly cycles (hypoattenuation appears dark on CT imaging) and then shrunk after 6 cycles (FIG. 18).
The patient was administered PFK-158 for 4 cycles and their bony metastases were deemed to be stable (FIG. 19, left two panels) and several liver metastases became necrotic (FIG. 19, right panel).
(§3) 18 cancer patients completed 2 cycles of 24-470 mg/M^2 PFK-158; 5 of these patients experienced stabilization of their disease (i.e. no growth and no new tumors) and tumor regressions have been observed in multiple patients. For example, a person with renal cell carcinoma who had progressed after all available FDA-approved agents including mTOR and VEGFR inhibitors and IL-2 entered the study (470 mg/M^2). They experienced stabilization of disease by immune-related response criteria (26% reduction in maximum diameters) with multiple tumors regressing and has entered their seventh month of treatment. Of these 18 patients, immunophenotyping by flow cytometry on 4 patients' PBMCs has been carried out. These four patients were administered PFK-158 for 2 weeks and PBMCs were collected at baseline, day 15, and then analyzed by flow cytometry for CD3+CD4+il-17+ cells and CD8+CD137+ T cells.

PBMCs = assay: Immunophenotyping by flow cytometry of PBMCs of 4 metastatic cancer patients; format: in vivo, human; conditions: of 4 patients; after 15 days of administration
Description: as §3

Row | Compound | stimulation of F2,6BP synthesis, 2-[1-14C]-deoxy-D-glucose uptake, lactate secretion, TNF-α secretion and T cell aggregation and proliferation (human CD3+ T cells) | development of delayed type hypersensitivity to methylated BSA [1] | development of imiquimod-induced psoriasis [2] | increase in circulating cancer-reactive CD8+/CD57+/CD27-/CD28- T cells [3] | concentration reducing IL-17A, fold less than required to inhibit neoplastic and endothelial cells growth (Th17 cells) | concentration reducing IL-17A, fold less than required to inhibit neoplastic and endothelial cells growth (γδT17 cells) | patients with de novo stabilization of tumor burden (cancer patients; breast and adenoid cystic carcinoma) | patients with partial tumor regressions (cancer patients; ocular melanoma, ovarian cancer and renal cell carcinoma) | patients with stabilization of their disease (cancer patients; of 18 cancer patients who completed 2 cycles of 24-470 mg/M^2) | reduction in maximum diameters (immune-related response criteria) (cancer patients; person with renal cell carcinoma, 470 mg/M^2) | maximum tolerated dose (cancer patients; phase 1 trial, entered cohort 7, currently at 650 mg/M^2) | patients with a reduction in frequency of Th17 cells (PBMCs)
1 | O=C(C=Cc1cccnc1)c1ccncc1 [3PO, 3-(3-pyridinyl)-1-(4-pyridinyl)-2-propen-1-one] | markedly attenuated | suppressed | suppressed |  |  |  |  |  |  |  |  | 
2 | O=C(/C=C/c1ccc2ccc(C(F)(F)F)cc2n1)c1ccncc1 [PFK-158, (E)-1-(pyridyn-4-yl)-3-(7-(trifluoromethyl)quinolin-2-yl)-prop-2-en-1-one] |  |  |  | 36% | ~10 fold | ~10 fold | 2 patients | 3 patients | 5 patients | 26% | without reaching a maximum tolerated dose | 4 patients
